Assay results as given in patent US9045443B2, “Nitric oxide donor neprilysin inhibitors” (Theravance Biopharma R&D IP, LLC, priority 2012, dated 2015).

Biological target: T1, human NEP (Homo sapiens, UniProt P08473)
T1 construct: purchased R&D Systems, Minneapolis, Minn; 1182-ZN
Assay: In vitro enzyme inhibition assay at human NEP (Assay 1)
Format: biochemical
Conditions: recombinant human NEP, fluorogenic peptide substrate 10 μM, 37° C.; values may be affected by hydrolysis in the assay conditions, approximations; read-out: pKi at human NEP (converted)
Description: The inhibitory activities of compounds at human and rat neprilysin (EC 3.4.24.11; NEP) and human angiotensin converting enzyme (ACE) were determined using in vitro assays as described below.
Recombinant human NEP and recombinant human ACE were obtained commercially (R&D Systems, Minneapolis, Minn., catalog numbers 1182-ZN and 929-ZN, respectively). The fluorogenic peptide substrate Mca-D-Arg-Arg-Leu-Dap-(Dnp)-OH (Medeiros et al. (1997) Braz. J. Med. Biol. Res. 30:1157-62; Anaspec, San Jose, Calif.) and Abz-Phe-Arg-Lys(Dnp)-Pro-OH (Araujo et al. (2000) Biochemistry 39:8519-8525; Bachem, Torrance, Calif.) were used in the NEP and ACE assays respectively.
The assays were performed in 384-well white opaque plates at 37° C. using the fluorogenic peptide substrates at a concentration of 10 μM in Assay Buffer (NEP: 50 mM HEPES, pH 7.5, 100 mM NaCl, 0.01% polyethylene glycol sorbitan monolaurate (Tween-20), 10 μM ZnSO4; ACE: 50 mM HEPES, pH 7.5, 100 mM NaCl, 0.01% Tween-20, 1 μM ZnSO4).
Test compounds were assayed over the range of concentrations from […] to 20 μM. Test compounds were added to the enzymes and incubated for 30 minute at 37° C. prior to initiating the reaction by the addition of substrate. Reactions were terminated after 20 minutes of incubation at 37° C. by the addition of glacial acetic acid to a final concentration of 3.6% (v/v).
Plates were read on a fluorometer with excitation and emission wavelengths set to 320 nm and 405 nm, respectively Inhibition constants were obtained by nonlinear regression of the data using the equation (GraphPad Software, Inc., San Diego, Calif.): v=v0/[1+(I/K′)] where v is the reaction rate, v0 is the uninhibited reaction rate, I is the inhibitor concentration and K′ is the apparent inhibition constant.
Compounds of the invention were tested in this assay and found to have pKi values at human NEP as follows, noting however, that these values may be affected by hydrolysis in the assay conditions and are therefore approximations of activity.

T1 sequence (P08473 52-750 limits assumed): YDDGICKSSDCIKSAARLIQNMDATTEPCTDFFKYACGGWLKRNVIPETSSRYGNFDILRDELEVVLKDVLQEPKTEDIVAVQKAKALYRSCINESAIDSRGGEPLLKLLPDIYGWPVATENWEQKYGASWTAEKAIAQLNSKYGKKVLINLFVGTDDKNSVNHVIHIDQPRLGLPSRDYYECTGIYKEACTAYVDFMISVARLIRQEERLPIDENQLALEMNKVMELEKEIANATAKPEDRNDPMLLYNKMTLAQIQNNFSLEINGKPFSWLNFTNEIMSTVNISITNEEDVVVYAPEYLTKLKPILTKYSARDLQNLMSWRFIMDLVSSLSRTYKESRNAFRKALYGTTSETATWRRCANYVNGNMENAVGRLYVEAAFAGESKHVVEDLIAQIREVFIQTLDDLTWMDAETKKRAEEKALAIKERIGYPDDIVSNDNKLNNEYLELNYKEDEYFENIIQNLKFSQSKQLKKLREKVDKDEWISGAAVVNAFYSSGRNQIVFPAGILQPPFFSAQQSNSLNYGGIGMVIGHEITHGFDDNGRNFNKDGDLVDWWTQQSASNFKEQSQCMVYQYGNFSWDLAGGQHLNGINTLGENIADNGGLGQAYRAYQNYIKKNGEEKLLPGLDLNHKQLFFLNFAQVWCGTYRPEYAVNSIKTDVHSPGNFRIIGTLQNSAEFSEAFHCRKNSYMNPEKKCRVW

First: O=C(N[C@H](Cc1ccc(-c2ccccc2)cc1)C[C@@H](O)C(=O)OCCCCO[N+](=O)[O-])c1cc(O)no1 [Example 1, (2R,4R)-5-Biphenyl-4-yl-2-hydroxy-4-[(3-hydroxyisoxazole-5-carbonyl)amino]pentanoic Acid 4-Nitrooxybutyl Ester]
Second: O=C(O)C(=O)N[C@H](Cc1ccc(-c2ccccc2)cc1)C[C@@H](O)C(=O)OCCCCO[N+](=O)[O-] [Example 3, (2R,4R)-5-Biphenyl-4-yl-2-hydroxy-4-(oxalylamino)-pentanoic Acid 4-Nitrooxybutyl Ester]
The Ki of the first is lower: 31.6 to 100 nM for the first, 316 to 1000 nM for the second.

Compared with `O=C(N[C@H](Cc1ccc(-c2ccccc2)cc1)C[C@@H](O)C(=O)OCCCCOc1no[n+]([O-])c1S(=O)(=O)c1ccccc1)c1cc(O)no1` [Example 2, (2R,4R)-5-Biphenyl-4-yl-2-hydroxy-4-[(3-hydroxyisoxazole-5-carbonyl)amino]pentanoic Acid 4-(4-Benzenesulfonyl-5-oxyfurazan-3-yloxy)butyl Ester], `O=C(O)C(=O)N[C@H](Cc1ccc(-c2ccccc2)cc1)C[C@@H](O)C(=O)OCCCCOc1no[n+]([O-])c1S(=O)(=O)c1ccccc1` [Example 4, (2R,4R)-5-Biphenyl-4-yl-2-hydroxy-4-(oxalylamino)-pentanoic Acid 4-(4-Benzenesulfonyl-5-oxyfurazan-3-yloxy)butyl Ester] is higher in Ki: 31.6 to 100 nM for the first, 316 to 1000 nM for the second.
